According to patent US20090048295A1, “SUBSTITUTED 5,6,7,8-TETRAHYDROQUINOLINE DERIVATIVES, COMPOSITIONS, AND METHODS OF USE THEREOF” (priority 2007, published 2009):
pIC50: −log10 of the molar value. Values joined by “and” are separate entries in the source; they are usually repeats but may differ in a detail not shown here. Equal entries are not always repeated.

What follows are molecules tested against T1, C5a receptor (Homo sapiens, UniProt P21730) (assay: Calcium Mobilization Assay (C5a-induced Ca2+ mobilization, FLIPR, differentiated U937 cells)). Details: […] recombinant human C5a, 20 min pre-incubation, multiple values = duplicate experiments, read-out: C5a Induced Ca Mobil. Average IC50.
T1 sequence (P21730 1-350): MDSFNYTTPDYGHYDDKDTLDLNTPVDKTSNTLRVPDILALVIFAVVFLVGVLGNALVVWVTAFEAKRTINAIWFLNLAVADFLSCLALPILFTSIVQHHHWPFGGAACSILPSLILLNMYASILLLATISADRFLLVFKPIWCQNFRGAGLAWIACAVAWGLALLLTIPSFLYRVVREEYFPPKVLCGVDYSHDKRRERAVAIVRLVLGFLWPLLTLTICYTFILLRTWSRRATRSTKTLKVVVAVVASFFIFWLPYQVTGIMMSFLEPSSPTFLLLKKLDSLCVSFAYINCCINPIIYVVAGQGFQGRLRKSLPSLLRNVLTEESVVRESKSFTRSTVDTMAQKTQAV
Type: cell-based
Set-up: endogenous in cells; host or cells: U937 cells differentiated with dibutyryl cAMP
Description: U937 cells (human monocytic cell line) were cultured in RPMI-1640 medium supplemented with 10% fetal bovine serum, 10 mM HEPES, 0.11 g/L pyruvate, 0.29 g/L L-glutamine, 100 IU/mL penicillin G and […] streptomycin. Dibutyryl cAMP (1 mM) was added to induce differentiation 2 or 3 days prior to loading the cells with 4.4 μM Fluo-3AM (Molecular Probes) for 30 min at 37° C. in RPMI medium containing 20 mM HEPES, 0.1% bovine serum albumin (BSA) and 5 mM probenecid. After washing, cells were dissolved at 2×10^6 cells/ml in HBSS buffer (Invitrogen 14190-094) supplemented with 10 mM HEPES, 2.5 mM probenecid and 0.1% BSA (pH=7.4), and sedimented by 1 min centrifugation (1500 rpm) in black 96-well plates (Costar) (200,000 cells/well). A 100× concentration range of test compounds was prepared in DMSO and further diluted in HBSS buffer. U937 cells were pre-incubated with compound for 20 minutes at room temperature (1% DMSO), before recombinant human C5a (Sigma) was added to the cells (1.5 nM). Changes in intracellular free Ca^2+ concentration were measured using the Fluorescent Imaging Plate Reader (FLIPR, Molecular Devices). Fluorescence was recorded every second from 10 seconds before the addition of C5a until 2 min after the addition. The maximal fluorescence obtained during this time frame was used for further calculations.
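Throughout, for [125I]-C5a Binding % Inhibition 1 μM: cells preincubated with compound 30 min at room temperature, then 60 min at 4 °C with radioligand, bound counts read by scintillation, nonspecific binding defined with 100 nM C5a.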
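Throughout, for [125I]-C5a Binding % Inhibition 10 μM: cells preincubated with compound 30 min at room temperature, then 60 min at 4 °C with radioligand, bound counts read by scintillation, nonspecific binding defined with 100 nM C5a.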

SMILES	pIC50
CCN(c1cccc2ccccc12)C1CCCc2nc(-c3ccccc3C(C)C)cc(OC)c21 (centres unmarked) [Compound 57]	5.76
CCc1cccc(CC)c1-c1cc(OC)c2c(n1)CCCC2N(C)c1cccc2c1CCC2 (centres unmarked) [Compound 72]	5.42
CCc1cccc(CC)c1-c1cc(OC)c2c(n1)CCCC2Nc1cc(OC)ccc1OC (centres unmarked) [Compound 34]	6.38
COc1ccc(C)c(N(C)C2CCCc3nc(-c4c(C)cccc4C)cc(OC)c32)c1 (centres unmarked) [Compound 69]	5.49
CCc1cccc(CC)c1-c1cc(OC)c2c(n1)CCCC2Nc1ccccc1CO (centres unmarked) [Compound 15]	6.75
CCc1cccc(CC)c1-c1cc(OC)c2c(n1)CCCC2Nc1ccccc1C#N (centres unmarked) [Compound 74]	5.31
CCc1cccc(CC)c1-c1cc(OC)c2c(n1)CCCC2N(C)c1cc(OC)ccc1C (centres unmarked) [Compound 38]	6.25
CCc1cccc(CC)c1-c1cc(OC)c2c(n1)CCCC2OCc1ccccc1 (centres unmarked) [Compound 86]	< 5.00
CCc1cccc(CC)c1-c1cc(OC)c2c(n1)CCCC2Oc1cc(OC)ccc1C (centres unmarked) [Compound 29]	6.47
CCc1cccc(CC)c1-c1cc(OC)c2c(n1)CCCC2N(C)c1cc(Cl)ccc1C (centres unmarked) [Compound 67]	5.59
CCc1cccc(CC)c1-c1cc(OC)c2c(n1)CCCC2N1CCCc2ccccc21 (centres unmarked) [Compound 65]	5.61
CCc1cccc(CC)c1-c1cc(OC)c2c(n1)CCCC2N(C)CCc1ccccc1 (centres unmarked) [Compound 87]	< 5.00
CCc1cccc(CC)c1-c1cc(OC)c2c(n1)CCCC2N(C)c1ccc(OC)cc1C (centres unmarked) [Compound 80]	5.21
COc1cc(-c2c(C)cccc2C)nc2c1C(N(CC#N)c1cccc3ccccc13)CCC2 (centres unmarked) [Compound 49]	5.86

Now from value to molecule:

pIC50	SMILES
< 5.00	CCc1cccc(CC)c1-c1cc(OC)c2c(n1)CCCC2N1CCc2ccc(C#N)cc2C1 (centres unmarked) [Compound 96]
< 5.00	COc1cc(-c2c(C)cccc2C)nc2c1C(Oc1cc(C(C)C)ccc1C)CCC2 (centres unmarked) [Compound 111]
< 5.00	CCc1cccc(CC)c1-c1cc(OC)c2c(n1)CCCC2N1CCc2c(cccc2C(=O)OC)C1 (centres unmarked) [Compound 99]
< 5.00	CCc1cccc(CC)c1-c1cc(OC)c2c(n1)CCCC2N1CCc2cc(C(F)(F)F)ccc2C1 (centres unmarked) [Compound 102]
< 5.00	CCc1cccc(CC)c1-c1cc(OC)c2c(n1)CCCC2N(C)Cc1cccnc1 (centres unmarked) [Compound 125]
< 5.00	CCc1cccc(CC)c1-c1cc(OC)c2c(n1)CCCC2Nc1cccc2c1CCC2 (centres unmarked) [Compound 121]
< 5.00	CCc1cccc(CC)c1-c1cc(OC)c2c(n1)CCCC2N1CCc2cccc(C(=O)O)c2C1 (centres unmarked) [Compound 130]
< 5.00	CCc1cccc(CC)c1-c1cc(OC)c2c(n1)CCCC2N1CCc2cc(C(=O)OC)ccc2C1 (centres unmarked) [Compound 98]

Each molecule was assayed against T1, C5a receptor (assay: [125I]-C5a Radioligand Binding Assay (competition binding, differentiated U937 cells)). Details: read-out: [125I]-C5a Binding % Inhibition 1 μM, test compound 1 μM; [125I]-C5a 0.05 nM; U937 cells; multiple values = duplicate experiments.

SMILES	inhibition at 1 µM
CCN(c1cccc2ccccc12)C1CCCc2nc(-c3ccccc3C(C)C)cc(OC)c21 (centres unmarked) [Compound 57]	76%
CCc1cccc(CC)c1-c1cc(OC)c2c(n1)CCCC2N(C)c1cccc2c1CCC2 (centres unmarked) [Compound 72]	86%
CCc1cccc(CC)c1-c1cc(OC)c2c(n1)CCCC2Nc1cc(OC)ccc1OC (centres unmarked) [Compound 34]	83%
COc1ccc(C)c(N(C)C2CCCc3nc(-c4c(C)cccc4C)cc(OC)c32)c1 (centres unmarked) [Compound 69]	76%
CCc1cccc(CC)c1-c1cc(OC)c2c(n1)CCCC2Nc1ccccc1CO (centres unmarked) [Compound 15]	79%
CCc1cccc(CC)c1-c1cc(OC)c2c(n1)CCCC2Nc1ccccc1C#N (centres unmarked) [Compound 74]	19%
CCc1cccc(CC)c1-c1cc(OC)c2c(n1)CCCC2N(C)c1cc(OC)ccc1C (centres unmarked) [Compound 38]	84%
CCc1cccc(CC)c1-c1cc(OC)c2c(n1)CCCC2OCc1ccccc1 (centres unmarked) [Compound 86]	49%
CCc1cccc(CC)c1-c1cc(OC)c2c(n1)CCCC2Oc1cc(OC)ccc1C (centres unmarked) [Compound 29]	88%
CCc1cccc(CC)c1-c1cc(OC)c2c(n1)CCCC2N(C)c1cc(Cl)ccc1C (centres unmarked) [Compound 67]	82%
CCc1cccc(CC)c1-c1cc(OC)c2c(n1)CCCC2N(C)c1ccc(OC)cc1C (centres unmarked) [Compound 80]	80%
COc1cc(-c2c(C)cccc2C)nc2c1C(N(CC#N)c1cccc3ccccc13)CCC2 (centres unmarked) [Compound 49]	59%

Results, then the molecule that gave them:

inhibition at 1 µM	SMILES
77%	CCc1cccc(CC)c1-c1cc(OC)c2c(n1)CCCC2N1CCc2ccc(C#N)cc2C1 (centres unmarked) [Compound 96]
82%	COc1cc(-c2c(C)cccc2C)nc2c1C(Oc1cc(C(C)C)ccc1C)CCC2 (centres unmarked) [Compound 111]
59%	CCc1cccc(CC)c1-c1cc(OC)c2c(n1)CCCC2N1CCc2c(cccc2C(=O)OC)C1 (centres unmarked) [Compound 99]
74%	CCc1cccc(CC)c1-c1cc(OC)c2c(n1)CCCC2N1CCc2cc(C(F)(F)F)ccc2C1 (centres unmarked) [Compound 102]
-11%	CCc1cccc(CC)c1-c1cc(OC)c2c(n1)CCCC2N(C)Cc1cccnc1 (centres unmarked) [Compound 125]
59%	CCc1cccc(CC)c1-c1cc(OC)c2c(n1)CCCC2Nc1cccc2c1CCC2 (centres unmarked) [Compound 121]
-24%	CCc1cccc(CC)c1-c1cc(OC)c2c(n1)CCCC2N1CCc2cccc(C(=O)O)c2C1 (centres unmarked) [Compound 130]
43%	CCc1cccc(CC)c1-c1cc(OC)c2c(n1)CCCC2N1CCc2cc(C(=O)OC)ccc2C1 (centres unmarked) [Compound 98]

Same assay, conditions: read-out: [125I]-C5a Binding % Inhibition 10 μM, test compound 10 μM; [125I]-C5a 0.05 nM; U937 cells; multiple values = duplicate experiments

SMILES	inhibition at 10 µM
CCN(c1cccc2ccccc12)C1CCCc2nc(-c3ccccc3C(C)C)cc(OC)c21 (centres unmarked) [Compound 57]	89%
CCc1cccc(CC)c1-c1cc(OC)c2c(n1)CCCC2N(C)c1cccc2c1CCC2 (centres unmarked) [Compound 72]	85%
CCc1cccc(CC)c1-c1cc(OC)c2c(n1)CCCC2Nc1cc(OC)ccc1OC (centres unmarked) [Compound 34]	89%
COc1ccc(C)c(N(C)C2CCCc3nc(-c4c(C)cccc4C)cc(OC)c32)c1 (centres unmarked) [Compound 69]	85%
CCc1cccc(CC)c1-c1cc(OC)c2c(n1)CCCC2Nc1ccccc1CO (centres unmarked) [Compound 15]	90%
CCc1cccc(CC)c1-c1cc(OC)c2c(n1)CCCC2Nc1ccccc1C#N (centres unmarked) [Compound 74]	52%
CCc1cccc(CC)c1-c1cc(OC)c2c(n1)CCCC2N(C)c1cc(OC)ccc1C (centres unmarked) [Compound 38]	87%
CCc1cccc(CC)c1-c1cc(OC)c2c(n1)CCCC2OCc1ccccc1 (centres unmarked) [Compound 86]	64%
CCc1cccc(CC)c1-c1cc(OC)c2c(n1)CCCC2Oc1cc(OC)ccc1C (centres unmarked) [Compound 29]	89%
CCc1cccc(CC)c1-c1cc(OC)c2c(n1)CCCC2N(C)c1cc(Cl)ccc1C (centres unmarked) [Compound 67]	86%
CCc1cccc(CC)c1-c1cc(OC)c2c(n1)CCCC2N(C)c1ccc(OC)cc1C (centres unmarked) [Compound 80]	81%
COc1cc(-c2c(C)cccc2C)nc2c1C(N(CC#N)c1cccc3ccccc13)CCC2 (centres unmarked) [Compound 49]	80%

Further lines, results first:

inhibition at 10 µM	SMILES
87%	CCc1cccc(CC)c1-c1cc(OC)c2c(n1)CCCC2N1CCc2ccc(C#N)cc2C1 (centres unmarked) [Compound 96]
85%	COc1cc(-c2c(C)cccc2C)nc2c1C(Oc1cc(C(C)C)ccc1C)CCC2 (centres unmarked) [Compound 111]
76%	CCc1cccc(CC)c1-c1cc(OC)c2c(n1)CCCC2N1CCc2c(cccc2C(=O)OC)C1 (centres unmarked) [Compound 99]
80%	CCc1cccc(CC)c1-c1cc(OC)c2c(n1)CCCC2N1CCc2cc(C(F)(F)F)ccc2C1 (centres unmarked) [Compound 102]
45%	CCc1cccc(CC)c1-c1cc(OC)c2c(n1)CCCC2N(C)Cc1cccnc1 (centres unmarked) [Compound 125]
75%	CCc1cccc(CC)c1-c1cc(OC)c2c(n1)CCCC2Nc1cccc2c1CCC2 (centres unmarked) [Compound 121]
-13%	CCc1cccc(CC)c1-c1cc(OC)c2c(n1)CCCC2N1CCc2cccc(C(=O)O)c2C1 (centres unmarked) [Compound 130]
70%	CCc1cccc(CC)c1-c1cc(OC)c2c(n1)CCCC2N1CCc2cc(C(=O)OC)ccc2C1 (centres unmarked) [Compound 98]

Same assay, conditions: test compound 1 μM; [125I]-C5a 0.05 nM; U937 cells; multiple values = duplicate experiments

[125I]-C5a Binding % Inhibition 1 μM	SMILES
−7% and 1%	CCc1cccc(CC)c1-c1cc(OC)c2c(n1)CCCC2N1CCCc2ccccc21 (centres unmarked) [Compound 65]
17%	CCc1cccc(CC)c1-c1cc(OC)c2c(n1)CCCC2N(C)CCc1ccccc1 (centres unmarked) [Compound 87]

Same assay, conditions: test compound 10 μM; [125I]-C5a 0.05 nM; U937 cells; multiple values = duplicate experiments

[125I]-C5a Binding % Inhibition 10 μM	SMILES
51%	CCc1cccc(CC)c1-c1cc(OC)c2c(n1)CCCC2N(C)CCc1ccccc1 (centres unmarked) [Compound 87]
